{"source": "PubChem BioAssay (NCI)", "test_in_all_cases": "NCI anticancer screen, dose series, 48 h", "key": {"[1]": {"tested_on": "RXF 393 renal"}, "[2]": {"tested_on": "SNB-75 CNS"}, "[3]": {"tested_on": "SK-OV-3 ovarian"}, "[4]": {"tested_on": "SK-MEL-5 melanoma"}, "[5]": {"tested_on": "HOP-92 NSCLC"}, "[6]": {"tested_on": "COLO 205 colon"}, "[7]": {"tested_on": "KM12 colon"}, "[8]": {"tested_on": "HS 578T breast"}, "[9]": {"tested_on": "SF-539 CNS"}, "[10]": {"tested_on": "CCRF-CEM leukemia"}, "[11]": {"tested_on": "OVCAR-3 ovarian"}, "[12]": {"tested_on": "NCI/ADR-RES ovarian"}, "[13]": {"tested_on": "CAKI-1 renal"}, "[14]": {"tested_on": "U251 CNS"}, "[15]": {"tested_on": "MALME-3M melanoma"}, "[16]": {"tested_on": "MCF7 breast"}, "[17]": {"tested_on": "SK-MEL-2 melanoma"}, "[18]": {"tested_on": "A549 NSCLC"}, "[19]": {"tested_on": "A498 renal"}, "[20]": {"tested_on": "EKVX NSCLC"}, "[21]": {"tested_on": "SNB-19 CNS"}, "[22]": {"tested_on": "T-47D breast"}, "[23]": {"tested_on": "HL-60(TB) leukemia"}, "[24]": {"tested_on": "DU-145 prostate"}, "[25]": {"tested_on": "786-0 renal"}, "[26]": {"tested_on": "HCT-15 colon"}, "[27]": {"tested_on": "SK-MEL-28 melanoma"}, "[28]": {"tested_on": "TK-10 renal"}}, "note": "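Growth conditions: 96-well plates. Treatment: test compound, 48 hours, 5 concentrations. Analysis: linear interpolation between bracketing concentrations; unreached endpoints set to highest concentration. GI50 is the concentration that inhibits growth by half. TGI: total growth inhibition.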", "data": [{"smiles": "Nc1cc(-c2c[nH]c3ccc(Cl)cc23)nc2cc(-c3c[nH]c4ccccc34)nn12", "values": [{"measurement": "GI50", "setting": "[1]", "result": 2.23, "unit": "µM"}, {"measurement": "TGI", "setting": "[1]", "result": 6.61, "unit": "µM"}, {"measurement": "GI50", "setting": "[2]", "result": 1.71, "unit": "µM"}, {"measurement": "TGI", "setting": "[2]", "result": 9.69, "unit": "µM"}, {"measurement": "GI50", "setting": "[3]", "result": 6.25, "unit": "µM"}, {"measurement": "TGI", "setting": "[3]", "result": 20, "unit": "µM"}, {"measurement": "GI50", "setting": "[4]", "result": 2.05, "unit": "µM"}, {"measurement": "TGI", "setting": "[4]", "result": 4.42, "unit": "µM"}, {"measurement": "GI50", "setting": "[5]", "result": 2.1, "unit": "µM"}, {"measurement": "TGI", "setting": "[5]", "result": 5.65, "unit": "µM"}, {"measurement": "GI50", "setting": "[6]", "result": 1.75, "unit": "µM"}, {"measurement": "TGI", "setting": "[6]", "result": 3.6, "unit": "µM"}, {"measurement": "GI50", "setting": "[7]", "result": 2.02, "unit": "µM"}, {"measurement": "TGI", "setting": "[7]", "result": 4.27, "unit": "µM"}, {"measurement": "GI50", "setting": "[8]", "result": 3.25, "unit": "µM"}, {"measurement": "TGI", "setting": "[8]", "result": 16.4, "unit": "µM"}, {"measurement": "GI50", "setting": "[9]", "result": 1.81, "unit": "µM"}, {"measurement": "TGI", "setting": "[9]", "result": 3.47, "unit": "µM"}, {"measurement": "GI50", "setting": "[10]", "result": 2.99, "unit": "µM"}, {"measurement": "TGI", "setting": "[10]", "result": 9.39, "unit": "µM"}, {"measurement": "GI50", "setting": "[11]", "result": 2.9, "unit": "µM"}, {"measurement": "TGI", "setting": "[11]", "result": 10.5, "unit": "µM"}, {"measurement": "GI50", "setting": "[12]", "result": 3.45, "unit": "µM"}, {"measurement": "TGI", "setting": "[12]", "result": 14.7, "unit": "µM"}, {"measurement": "GI50", "setting": "[13]", "result": 1.99, "unit": "µM"}, {"measurement": "TGI", "setting": "[13]", "result": 5.28, "unit": "µM"}, {"measurement": "GI50", "setting": "[14]", "result": 1.8, "unit": "µM"}, {"measurement": "TGI", "setting": "[14]", "result": 4.22, "unit": "µM"}, {"measurement": "GI50", "setting": "[15]", "result": 1.78, "unit": "µM"}, {"measurement": "TGI", "setting": "[15]", "result": 3.23, "unit": "µM"}, {"measurement": "GI50", "setting": "[16]", "result": 1.83, "unit": "µM"}, {"measurement": "TGI", "setting": "[16]", "result": 3.96, "unit": "µM"}, {"measurement": "GI50", "setting": "[17]", "result": 2.28, "unit": "µM"}, {"measurement": "TGI", "setting": "[17]", "result": 6.05, "unit": "µM"}, {"measurement": "GI50", "setting": "[18]", "result": 2.76, "unit": "µM"}, {"measurement": "TGI", "setting": "[18]", "result": 12.1, "unit": "µM"}, {"measurement": "GI50", "setting": "[19]", "result": 2.09, "unit": "µM"}, {"measurement": "TGI", "setting": "[19]", "result": 7.69, "unit": "µM"}, {"measurement": "GI50", "setting": "[20]", "result": 2.44, "unit": "µM"}, {"measurement": "TGI", "setting": "[20]", "result": 8.51, "unit": "µM"}, {"measurement": "GI50", "setting": "[21]", "result": 2.95, "unit": "µM"}, {"measurement": "TGI", "setting": "[21]", "result": 10.7, "unit": "µM"}, {"measurement": "GI50", "setting": "[22]", "result": 2.61, "unit": "µM"}, {"measurement": "GI50", "setting": "[23]", "result": 2.09, "unit": "µM"}, {"measurement": "TGI", "setting": "[23]", "result": 7.43, "unit": "µM"}, {"measurement": "GI50", "setting": "[24]", "result": 3.56, "unit": "µM"}, {"measurement": "TGI", "setting": "[24]", "result": 12.9, "unit": "µM"}, {"measurement": "GI50", "setting": "[25]", "result": 1.67, "unit": "µM"}, {"measurement": "TGI", "setting": "[25]", "result": 3.67, "unit": "µM"}, {"measurement": "GI50", "setting": "[26]", "result": 1.61, "unit": "µM"}, {"measurement": "TGI", "setting": "[26]", "result": 3.24, "unit": "µM"}, {"measurement": "GI50", "setting": "[27]", "result": 1.87, "unit": "µM"}, {"measurement": "TGI", "setting": "[27]", "result": 4.23, "unit": "µM"}, {"measurement": "GI50", "setting": "[28]", "result": 2.9, "unit": "µM"}, {"measurement": "TGI", "setting": "[28]", "result": 13.3, "unit": "µM"}]}]}
